# According to the supplement of paper PMC11061612:
# What was measured:
# [1] = tested on: MOLP-8 (Plasma Cell Myeloma); assay: combination Emax (second highest fraction inhibited in the dose matrix, 72 h); higher = more inhibition; extreme values may be limits of the assay
# How it was run: (§1)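 After 24 hours at 37°C and 5% CO2 in 1536-well plates, cells in DMEM/F12 or RPMI plus 10% FBS received two-drug dose matrices for 72 hours. Viability came from CellTiter-Glo 2.0 luminescence and was scaled as inhibition, anchored at 0 by vehicle wells and at 1 by blank wells. Combination Emax is taken as the second-highest inhibition in the matrix, and Bliss excess as the observed combination effect less EA + EB − EA·EB, with EA and EB the single-agent effects.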
# [2] = tested on: P30-OHK (B-Lymphoblastic Leukemia); assay: as above
# How it was run: as §1
# [3] = tested on: SKG-IIIa (Cervical Carcinoma); assay: Bliss excess, mean over the matrix (fraction); higher = more synergy
# How it was run: as §1
# [4] = tested on: NMC-G1 (Low Grade Glioma); assay: as above
# How it was run: as §1
# [5] = tested on: SNU-C2B (Colorectal Carcinoma); assay: as above
# How it was run: as §1
# [6] = tested on: LCLC-103H (Non-Small Cell Lung Carcinoma); assay: as above
# How it was run: as §1
# [7] = tested on: RCC-JW (Kidney Carcinoma); assay: as above
# How it was run: as §1
# [8] = tested on: UACC-257 (Melanoma); assay: as above
# How it was run: as §1
# [9] = tested on: CL-11 (Colorectal Carcinoma); assay: as above
# How it was run: as §1
# [10] = tested on: NCI-H1341 (Small Cell Lung Carcinoma); assay: as above
# How it was run: as §1
# [11] = tested on: KALS-1 (Glioblastoma); assay: as above
# How it was run: as §1
# [12] = tested on: SAT (Head and Neck Carcinoma); assay: as above
# How it was run: as §1
# [13] = tested on: NCI-H596 (Other Solid Carcinomas); assay: as above
# How it was run: as §1
# [14] = tested on: MOLT-13 (T-Lymphoblastic Leukemia); assay: as above
# How it was run: as §1
# [15] = tested on: NCI-H1963 (Small Cell Lung Carcinoma); assay: as above
# How it was run: as §1
# [16] = tested on: TUR (Acute Myeloid Leukemia); assay: as above
# How it was run: as §1
# [17] = tested on: SNU-407 (Colorectal Carcinoma); assay: as above
# How it was run: as §1
# [18] = tested on: NCI-H3118 (Head and Neck Carcinoma); assay: as above
# How it was run: as §1
# [19] = tested on: MS-1 (Small Cell Lung Carcinoma); assay: as above
# How it was run: as §1
# 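Wherever Bliss excess, mean over the matrix is given: after 72 h of two-drug dosing.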
SMILES,combination Emax [1],combination Emax [2],Bliss excess [3],Bliss excess [4],Bliss excess [5],Bliss excess [6],Bliss excess [7],Bliss excess [8],Bliss excess [9],Bliss excess [10],Bliss excess [11],Bliss excess [12],Bliss excess [13],Bliss excess [14],Bliss excess [15],Bliss excess [16],Bliss excess [17],Bliss excess [18],Bliss excess [19]
"Cc1c2c(nn1C)CSCc1cc(n(C)n1)CSc1cc(c3ccccc3c1)OCCCc1c(C(=O)O)n(C)c3c-2c(Cl)ccc13 [AZD5991] + CN(C)CCCOc1ccc(-c2ccc3ncc4c(c3c2)n(C2CCOCC2)c(=O)n4C)cn1 [AZD0156] (first compound max 1 µM, 7x7, partner max 1 µM)",1,0.71,0.0104,-0.0387,0.0051,0.0401,-0.0001,-0.0064,-0.0081,0.0072,0.0151,-0.0186,-0.0088,-0.0198,0.0225,0.0377,-0.463,0.0092,-0.0347
"NC1(C(=O)N[C@@H](CCO)c2ccc(Cl)cc2)CCN(c2ncnc3[nH]ccc23)CC1 [Capivasertib] + C[C@@H]1COCCN1C2=NC(=NC(=C2)C3(CC3)[S@](=N)(=O)C)C4=C5C=CNC5=NC=C4 [AZD6738] (first compound max 10 µM, 7x7, partner max 10 µM)",0.85,0.936,-0.0602,,0.0158,-0.0607,-0.0713,0.0164,-0.0376,-0.0251,-0.074,-0.0345,-0.0105,-0.0387,-0.0142,-0.0398,-0.101,-0.0807,-0.0465
"NC1(C(=O)N[C@@H](CCO)c2ccc(Cl)cc2)CCN(c2ncnc3[nH]ccc23)CC1 [Capivasertib] + Cn1cnc2c(F)c(Nc3ccc(Br)cc3Cl)c(C(=O)NOCCO)cc21 [Selumetinib] (first compound max 10 µM, 7x7, partner max 10 µM)",0.715,0.186,-0.0066,,-0.022,-0.0267,0.0296,-0.0402,-0.0202,0.0605,0.0079,0.0768,0.0182,0.0339,0.0023,0.0879,0.026,0.091,-0.005
"Cc1nc(Nc2ncc(C(=O)Nc3c(C)cccc3Cl)s2)cc(N2CCN(CCO)CC2)n1 [Dasatinib] + CC(=O)Nc1cccc(-n2c(=O)n(C3CC3)c(=O)c3c(Nc4ccc(I)cc4F)n(C)c(=O)c(C)c32)c1 [Trametinib] (first compound max 2 µM, 7x7, partner max 1 µM)",0.621,0.202,-0.026,,-0.0275,0.0201,0.0062,-0.0926,0.0766,0.105,-0.0046,-0.0712,-0.0018,0.0463,0.0078,-0.0919,0.0332,-0.0604,-0.0281
"COc1cc2ncnc(Nc3ccc(F)c(Cl)c3)c2cc1OCCCN1CCOCC1 [Gefitinib] + CC(C)n1c(=O)n(C)c2cnc3cc(F)c(-c4ccc(OCCCN5CCCCC5)nc4)cc3c21 [AZD1390] (first compound max 10 µM, 7x7, partner max 0.3 µM)",0.413,0.173,-0.0991,,-0.06,-0.0119,-0.069,-0.055,-0.0474,-0.0399,-0.0471,-0.0522,-0.0474,-0.0246,-0.0526,-0.0185,-0.0783,-0.0011,-0.0252
"CS(=O)(=O)CCNCc1ccc(-c2ccc3ncnc(Nc4ccc(OCc5cccc(F)c5)c(Cl)c4)c3c2)o1 [Lapatinib] + C[C@@H](Oc1cc(-c2cnn(C3CCNCC3)c2)cnc1N)c1c(Cl)ccc(F)c1Cl [Crizotinib] (first compound max 10 µM, 7x7, partner max 10 µM)",0.978,0.972,-0.0438,,-0.0515,-0.0152,-0.0455,-0.0442,-0.0477,0.0876,-0.0378,-0.0358,-0.0065,0.0036,-0.0272,-0.0168,-0.0774,0.0337,-0.0784
"CC(=O)c1c(C)c2cnc(Nc3ccc(N4CCNCC4)cn3)nc2n(C2CCCC2)c1=O [Palbociclib] + CC1(C)CCC(CN2CCN(c3ccc(C(=O)NS(=O)(=O)c4ccc(NCC5CCOCC5)c([N+](=O)[O-])c4)c(Oc4cnc5[nH]ccc5c4)c3)CC2)=C(c2ccc(Cl)cc2)C1 [Venetoclax] (first compound max 10 µM, 7x7, partner max 1 µM)",0.538,0.866,-0.0667,,-0.036,-0.0083,-0.0539,-0.0479,-0.0286,0.0245,-0.0396,-0.0489,-0.0501,0.112,0.226,0.0153,-0.01,-0.0142,-0.0827
"CC(=O)c1c(C)c2cnc(Nc3ccc(N4CCNCC4)cn3)nc2n(C2CCCC2)c1=O [Palbociclib] + Cc1c2c(nn1C)CSCc1cc(n(C)n1)CSc1cc(c3ccccc3c1)OCCCc1c(C(=O)O)n(C)c3c-2c(Cl)ccc13 [AZD5991] (first compound max 10 µM, 7x7, partner max 1 µM)",1,0.811,-0.0489,,-0.0477,-0.0151,-0.0306,-0.026,0.0079,-0.031,-0.0609,-0.0367,-0.13,0.0478,-0.0047,-0.0441,-0.0968,0.0084,-0.0451
"CC(=O)c1c(C)c2cnc(Nc3ccc(N4CCNCC4)cn3)nc2n(C2CCCC2)c1=O [Palbociclib] + Cn1cnc2c(F)c(Nc3ccc(Br)cc3Cl)c(C(=O)NOCCO)cc21 [Selumetinib] (first compound max 10 µM, 7x7, partner max 10 µM)",0.553,0.408,-0.0394,,0.0282,0.0012,-0.0397,-0.0087,0.0303,-0.0199,-0.0353,0.0504,-0.0393,0.193,0.005,-0.0069,0.0615,0.0418,-0.0601
"C[C@@H](c1ccc2nccn2c1)n1nnc2ncc(-c3cnn(C)c3)nc21 [Savolitinib] + CC1(C)CCC(CN2CCN(c3ccc(C(=O)NS(=O)(=O)c4ccc(NCC5CCOCC5)c([N+](=O)[O-])c4)c(Oc4cnc5[nH]ccc5c4)c3)CC2)=C(c2ccc(Cl)cc2)C1 [Venetoclax] (first compound max 1 µM, 7x7, partner max 1 µM)",0.0876,0.163,-0.0546,,-0.0831,-0.0518,-0.0343,-0.0766,-0.0576,0.0535,-0.0571,-0.131,-0.0369,-0.0181,-0.0237,-0.0452,-0.0299,-0.0398,-0.0098
"C[C@@H](c1ccc2nccn2c1)n1nnc2ncc(-c3cnn(C)c3)nc21 [Savolitinib] + Cc1c2c(nn1C)CSCc1cc(n(C)n1)CSc1cc(c3ccccc3c1)OCCCc1c(C(=O)O)n(C)c3c-2c(Cl)ccc13 [AZD5991] (first compound max 1 µM, 7x7, partner max 1 µM)",1,0.683,-0.0554,,-0.0554,-0.0417,-0.0354,-0.0194,-0.0402,0.0274,-0.0411,-0.0558,-0.0852,-0.0368,-0.0134,0.0026,-0.0396,-0.0268,-0.0062
"Cn1cnc2c(F)c(Nc3ccc(Br)cc3Cl)c(C(=O)NOCCO)cc21 [Selumetinib] + C=CCn1c(=O)c2cnc(Nc3ccc(N4CCN(C)CC4)cc3)nc2n1-c1cccc(C(C)(C)O)n1 [AZD1775] (first compound max 10 µM, partner max 1 µM)",0.791,0.675,-0.0733,,-0.0667,-0.0316,-0.0542,0.0014,0.0024,0.0153,-0.0755,-0.0151,-0.0821,0.0535,-0.0834,-0.0146,0.0099,0.0207,-0.0347
"Cn1cnc2c(F)c(Nc3ccc(Br)cc3Cl)c(C(=O)NOCCO)cc21 [Selumetinib] + CC(C)n1c(=O)n(C)c2cnc3cc(F)c(-c4ccc(OCCCN5CCCCC5)nc4)cc3c21 [AZD1390] (first compound max 10 µM, 7x7, partner max 0.3 µM)",0.325,0.217,-0.0444,,-0.0081,-0.0154,-0.051,-0.0099,0.0011,-0.0071,-0.0115,0.0022,-0.0459,0.0447,0.0154,-0.0122,-0.0235,0.0525,-0.02
"Cn1cnc2c(F)c(Nc3ccc(Br)cc3Cl)c(C(=O)NOCCO)cc21 [Selumetinib] + CCN(CCO)CCCOc1ccc2c(Nc3cc(CC(=O)Nc4cccc(F)c4)[nH]n3)ncnc2c1 [AZD2811] (first compound max 10 µM, 7x7, partner max 1 µM)",0.417,0.835,-0.0486,,0.0193,-0.0104,-0.0464,0.0212,0.0129,0.0264,-0.0093,-0.0151,-0.035,0.0312,0.0053,0.0277,-0.0522,0.0259,-0.0261
"Cn1cnc2c(F)c(Nc3ccc(Br)cc3Cl)c(C(=O)NOCCO)cc21 [Selumetinib] + C[C@@H]1COCCN1C2=NC(=NC(=C2)C3(CC3)[S@](=N)(=O)C)C4=C5C=CNC5=NC=C4 [AZD6738] (first compound max 10 µM, 7x7, partner max 10 µM)",0.832,0.889,-0.0275,,0.0369,-0.0399,-0.0393,0.047,0.0244,0.0757,-0.0479,0.0782,-0.0333,0.106,0.0735,0.0151,0.1,0.0091,-0.0521
